Reference: PubChem BioAssay (NCI)
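Method: 48-hour compound exposure of cells in 96-well plates, five concentrations, linear interpolation of endpoints. GI50 marks 50% less growth. TGI denotes the concentration required for complete inhibition of growth.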

Tests used:
Test in all cases: NCI-60 cell line screen, 48 h
[1] = tested on: HT29 colon
[2] = tested on: PC-3 prostate
[3] = tested on: RPMI-8226 leukemia
[4] = tested on: SK-MEL-28 melanoma
[5] = tested on: CCRF-CEM leukemia
[6] = tested on: MDA-MB-435
[7] = tested on: U251 CNS
[8] = tested on: ACHN renal
[9] = tested on: NCI-H460 lung
[10] = tested on: HOP-62 NSCLC
[11] = tested on: COLO 205 colon
[12] = tested on: SK-MEL-2 melanoma
[13] = tested on: TK-10 renal
[14] = tested on: MDA-MB-231 breast
[15] = tested on: UO-31 renal
[16] = tested on: SF-539 CNS
[17] = tested on: BT-549 breast

CC1(C)C(C#N)=[N+]([O-])C(C)(C)N1O
TGI [1]: > 100 µM | TGI [2]: > 100 µM | TGI [3]: > 100 µM | TGI [4]: > 100 µM | TGI [5]: > 100 µM | TGI [6]: > 100 µM | TGI [7]: > 100 µM | TGI [8]: > 100 µM | TGI [9]: > 100 µM | TGI [10]: > 100 µM | TGI [11]: > 100 µM | TGI [12]: > 100 µM | TGI [13]: > 100 µM | TGI [14]: > 100 µM | TGI [15]: > 100 µM | TGI [16]: > 100 µM

CCOC(=O)C1(C#N)C(c2ccccc2)CC(O)(c2ccc([N+](=O)[O-])cc2)C(C(=O)c2ccc([N+](=O)[O-])cc2)C1c1ccccc1 (stereo not given)
TGI [1]: > 100 µM | TGI [3]: > 100 µM | TGI [4]: > 100 µM | TGI [5]: > 100 µM | TGI [7]: > 100 µM | TGI [8]: > 100 µM | TGI [9]: > 100 µM | TGI [10]: > 100 µM | TGI [11]: > 100 µM | TGI [12]: > 100 µM | TGI [13]: > 100 µM | TGI [15]: > 100 µM

CC(=O)NC(CCCCN(Cc1ccccc1)C(=O)NCCCl)C(=O)NCc1ccccc1 (stereo not given)
TGI [1]: > 100 µM | TGI [3]: > 100 µM | TGI [4]: > 100 µM | TGI [5]: > 100 µM | TGI [7]: > 100 µM | TGI [8]: > 100 µM | TGI [9]: > 100 µM | TGI [10]: > 100 µM | TGI [11]: > 100 µM | TGI [12]: > 100 µM | TGI [15]: > 100 µM | TGI [16]: > 100 µM

CCOC(=O)[C@@H]1OC(c2ccccc2)O[C@H]1C(=O)OCC
TGI [1]: > 100 µM | TGI [2]: > 100 µM | TGI [3]: > 100 µM | TGI [4]: > 100 µM | TGI [5]: > 100 µM | TGI [6]: > 100 µM | TGI [7]: > 100 µM | TGI [8]: > 100 µM | TGI [10]: > 100 µM | TGI [11]: > 100 µM | TGI [12]: > 100 µM | TGI [13]: > 100 µM | TGI [14]: > 100 µM | TGI [15]: > 100 µM

CCC(=O)C1(N2CCOCC2)CCN(CCCC(=O)c2ccc(F)cc2)CC1
TGI [1]: > 100 µM | TGI [2]: > 100 µM | TGI [3]: > 100 µM | TGI [4]: > 100 µM | TGI [5]: > 100 µM | TGI [6]: > 100 µM | TGI [7]: > 100 µM | TGI [8]: > 100 µM | TGI [9]: > 100 µM | TGI [10]: > 100 µM | TGI [11]: > 100 µM | TGI [12]: > 100 µM | TGI [13]: > 100 µM | TGI [14]: > 100 µM | TGI [15]: > 100 µM | TGI [16]: > 100 µM

Cc1ccc(/C=N/Nc2nc3ccccc3s2)s1
TGI [1]: > 100 µM | TGI [2]: > 100 µM | TGI [3]: > 100 µM | TGI [4]: > 100 µM | TGI [5]: > 100 µM | TGI [6]: > 100 µM | TGI [7]: > 100 µM | TGI [8]: > 100 µM | TGI [10]: 89.4 µM | TGI [11]: > 100 µM | TGI [12]: > 100 µM | TGI [13]: > 100 µM | TGI [14]: 89.8 µM | TGI [15]: > 100 µM | TGI [16]: > 100 µM

CCCCCN1CCN(c2ncccn2)CC1
TGI [1]: > 100 µM | TGI [2]: > 100 µM | TGI [3]: > 100 µM | TGI [4]: > 100 µM | TGI [5]: > 100 µM | TGI [6]: > 100 µM | TGI [7]: > 100 µM | TGI [8]: > 100 µM | TGI [10]: > 100 µM | TGI [11]: > 100 µM | TGI [12]: > 100 µM | TGI [13]: > 100 µM | TGI [14]: > 100 µM | TGI [15]: > 100 µM | TGI [16]: > 100 µM

Cn1c2c(c3ccccc31)CCN1OCC=C[C@@H](C(=O)O)[C@@H]21
TGI [1]: > 100 µM | TGI [2]: > 100 µM | TGI [4]: > 100 µM | TGI [6]: > 100 µM | TGI [7]: > 100 µM | TGI [8]: > 100 µM | TGI [9]: > 100 µM | TGI [10]: > 100 µM | TGI [11]: > 100 µM | TGI [12]: > 100 µM | TGI [13]: > 100 µM | TGI [14]: > 100 µM | TGI [15]: > 100 µM | TGI [16]: > 100 µM

COc1c(C)c2c(c3c1c(=O)c1ccccc1n3C)C=CC(C)(C)O2
TGI [1]: 81.5 µM | TGI [3]: 76.8 µM | TGI [4]: 55.1 µM | TGI [5]: 83.9 µM | TGI [7]: 53.8 µM | TGI [8]: 56.3 µM | TGI [9]: 62 µM | TGI [10]: 85.8 µM | TGI [11]: 99.1 µM | TGI [12]: 48.3 µM | TGI [13]: > 100 µM | TGI [15]: 66 µM | TGI [16]: 44.9 µM

CC(C)(Br)C(Br)CCC(=CCBr)CBr (mixture of isomers)
TGI [1]: 9.16 µM | TGI [3]: 4.83 µM | TGI [4]: 6.86 µM | TGI [5]: 6.1 µM | TGI [6]: 14.1 µM | TGI [7]: 8.26 µM | TGI [8]: 21.6 µM | TGI [9]: 9.9 µM | TGI [10]: 8.89 µM | TGI [11]: 10.7 µM | TGI [12]: 9.32 µM | TGI [17]: 5.62 µM | TGI [13]: 22.5 µM | TGI [14]: 26.3 µM | TGI [15]: 27.5 µM | TGI [16]: 10.3 µM

CCOc1cc2ccc3c4cc(OC)c(OC)cc4cnc3c2cc1OCC
TGI [1]: > 100 µM | TGI [3]: > 100 µM | TGI [4]: > 100 µM | TGI [5]: > 100 µM | TGI [7]: > 100 µM | TGI [8]: > 100 µM | TGI [9]: > 100 µM | TGI [10]: > 100 µM | TGI [11]: > 100 µM | TGI [12]: > 100 µM | TGI [13]: > 100 µM | TGI [15]: > 100 µM | TGI [16]: > 100 µM

O=c1cc(-c2ccccc2)oc2cc(OCC(O)COc3ccc4c(=O)cc(-c5ccccc5)oc4c3)ccc12
TGI [1]: > 100 µM | TGI [3]: > 100 µM | TGI [4]: > 100 µM | TGI [5]: > 100 µM | TGI [7]: 63.1 µM | TGI [9]: > 100 µM | TGI [10]: 24.6 µM | TGI [12]: 53.4 µM | TGI [13]: > 100 µM | TGI [15]: > 100 µM | TGI [16]: 57 µM

Cc1ccc2nc(N/N=C/c3ccc(C)s3)cc(C)c2c1
TGI [1]: 12.4 µM | TGI [2]: 24.1 µM | TGI [3]: 56.6 µM | TGI [4]: 28.9 µM | TGI [6]: 23.1 µM | TGI [7]: 27.6 µM | TGI [8]: 24.1 µM | TGI [10]: 31.3 µM | TGI [11]: 12.2 µM | TGI [12]: 35.3 µM | TGI [13]: 25.2 µM | TGI [14]: 31.8 µM | TGI [16]: 24.4 µM

O=C(Nc1cc2c(=O)[nH]c3ccccc3c2oc1=O)c1cnccn1
TGI [1]: > 100 µM | TGI [2]: > 100 µM | TGI [4]: > 100 µM | TGI [5]: > 100 µM | TGI [6]: > 100 µM | TGI [7]: > 100 µM | TGI [8]: > 100 µM | TGI [9]: > 100 µM | TGI [11]: > 100 µM | TGI [12]: > 100 µM | TGI [17]: > 100 µM | TGI [13]: > 100 µM | TGI [14]: > 100 µM | TGI [15]: > 100 µM | TGI [16]: > 100 µM

O=C1CCCC2=C1CC1=C(CCCC1=O)N2c1ccccc1C(=O)O
TGI [1]: > 100 µM | TGI [2]: > 100 µM | TGI [3]: > 100 µM | TGI [4]: > 100 µM | TGI [5]: > 100 µM | TGI [7]: > 100 µM | TGI [8]: > 100 µM | TGI [9]: > 100 µM | TGI [17]: > 100 µM | TGI [13]: > 100 µM | TGI [15]: > 100 µM | TGI [16]: > 100 µM

O=C1Oc2ccccc2C(=O)/C1=C/N1C(=O)/C(=C/c2ccc3c(c2)OCO3)SC1=S
TGI [1]: 35.9 µM | TGI [2]: 30.6 µM | TGI [3]: 38.3 µM | TGI [4]: 36.8 µM | TGI [5]: > 61.3 µM | TGI [6]: 39.7 µM | TGI [7]: 15 µM | TGI [8]: 28.1 µM | TGI [9]: 32.4 µM | TGI [10]: 24.4 µM | TGI [11]: 36.6 µM | TGI [12]: 34.2 µM | GI50 [13]: 10.1 µM | TGI [13]: 22.7 µM | TGI [14]: 44 µM | GI50 [15]: 7.14 µM | TGI [15]: 22.9 µM | TGI [16]: 26.7 µM
